The record followed here is US9242996B2 (Novartis AG, priority 2013, dated 2016).

What is called IC50 is the concentration needed to halve the response being measured.

SMILES strings stand for the structures.

Chain of activated ERK2 (P28482 whole entry): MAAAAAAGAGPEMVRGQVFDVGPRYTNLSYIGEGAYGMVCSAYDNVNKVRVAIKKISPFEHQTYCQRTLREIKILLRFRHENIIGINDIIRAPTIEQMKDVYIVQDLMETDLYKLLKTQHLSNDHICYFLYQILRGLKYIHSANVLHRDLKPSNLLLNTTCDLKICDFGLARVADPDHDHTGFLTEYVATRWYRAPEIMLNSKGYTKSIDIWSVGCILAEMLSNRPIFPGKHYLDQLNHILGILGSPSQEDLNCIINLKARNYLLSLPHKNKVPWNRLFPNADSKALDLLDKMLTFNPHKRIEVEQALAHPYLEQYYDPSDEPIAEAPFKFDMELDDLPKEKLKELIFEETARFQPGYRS

The assay deals with activated ERK2 (Homo sapiens (Human), UniProt P28482). Briefly: Activated ERK2 (20 pM) Kinase Assay (AlphaScreen, ERKtide phosphorylation). The class given is biochemical. The settings on record: 0.02 nM ERK2, 400 nM ERKtide peptide, 35 μM ATP, 30 min preincubation. Here is the method: Activated ERK2 (20 pM) Kinase Assay:
The assay was carried out in 20 mM HEPES [pH 7.5], 5 mM MgCl2, 1 mM DTT, 0.01% Tween-20, 0.05% BSA using 0.02 nM ERK2, 400 nM ERKtide peptide and 35 μM ATP (all concentrations are final in the reaction) in a total volume of 10.25 μL. […] Compound dilution series were prepared in 100% DMSO. ERK2 was preincubated with compounds for 30 minutes at ambient temperature. Reaction was initiated by addition of a substrate cocktail of ERKtide peptide and ATP and was allowed to proceed for 4 hours at ambient temperature. Reaction was terminated by addition of 10 μL of a 2× stop buffer consisting of 100 mM Tris-Cl [pH 7.5], 25 mM EDTA, 0.01% Tween 20, 20 μg/mL of AlphaScreen Protein A Acceptor Beads, 20 μg/mL of Streptavidin Donor Beads (PerkinElmer, Waltham, Mass.), and 1:1000 dilution phospho-EGF Receptor (Thr669) antibody (Cat #8808, Cell Signaling Technology, Danvers, Mass.). Terminated reactions were read, after overnight incubation in the dark, on an EnVision Multilabel Plate Reader (PerkinElmer, Waltham, Mass.), with excitation and emission wavelengths set to 680 nm and 570 nm, respectively. IC50 values were determined using a four-parameter fit.
For orientation: Bead proximity is the source of the signal in Alpha formats.
Compound `NC[C@@H](NC(=O)c1ccc(-c2nc(C3CCOCC3)cnc2N)cc1F)c1cc(F)cc(I)c1` [Example 179, (S)—N-(2-amino-1-(3-fluoro-5-iodophenyl)ethyl)-4-(3-amino-6-(tetrahydro-2H-pyran-4-yl)pyrazin-2-yl)-2-fluorobenzamide] yielded an IC50 of 0.00612 nM.

Consider `NC[C@@H](NC(=O)c1ccc(-c2nc(C3CCOCC3)cnc2N)cc1F)c1cc(F)cc(Br)c1` [Example 180, (S)—N-(2-amino-1-(3-bromo-5-fluorophenyl)ethyl)-4-(3-amino-6-(tetrahydro-2H-pyran-4-yl)pyrazin-2-yl)-2-fluorobenzamide], for which half-maximal inhibition (IC50) was put at 0.00671 nM.

`NC[C@@H](NC(=O)c1ccc(-c2nc(C3CCOCC3)cnc2N)cc1F)c1cc(F)cc(Cl)c1` [Example 181, (S)—N-(2-amino-1-(3-chloro-5-fluorophenyl)ethyl)-4-(3-amino-6-(tetrahydro-2H-pyran-4-yl)pyrazin-2-yl)-2-fluorobenzamide]: the IC50 was 0.0119 nM.

`Nc1ncc([C@H]2CC[C@H](O)[C@@H](F)C2)nc1-c1ccc(C(=O)N[C@H](CO)c2cc(F)cc(Br)c2)c(F)c1` [Example 182, 4-(3-amino-6-((1S,3S,4S)-3-fluoro-4-hydroxycyclohexyl)pyrazin-2-yl)-N—((S)-1-(3-bromo-5-fluorophenyl)-2-hydroxyethyl)-2-fluorobenzamide]: inhibition was half-maximal at 0.051 nM (IC50). Compared with the last compound, the IC50 is about 4.3-fold higher.

As for `Nc1ncc([C@@H]2CC[C@@H](O)[C@H](F)C2)nc1-c1ccc(C(=O)N[C@H](CO)c2cc(F)cc(Br)c2)c(F)c1` [Example 183, 4-(3-amino-6-((1R,3R,4R)-3-fluoro-4-hydroxycyclohexyl)pyrazin-2-yl)-N—((S)-1-(3-bromo-5-fluorophenyl)-2-hydroxyethyl)-2-fluorobenzamide], the IC50 is 0.0571 nM.

As to `CNC[C@@H](NC(=O)c1ccc(-c2nc([C@H]3CC[C@H](O)[C@@H](F)C3)cnc2N)cc1F)c1cc(F)cc(Br)c1` [Example 184, 4-(3-amino-6-((1S,3S,4S)-3-fluoro-4-hydroxycyclohexyl)pyrazin-2-yl)-N—((S)-1-(3-bromo-5-fluorophenyl)-2-(methylamino)ethyl)-2-fluorobenzamide], the IC50 is 0.0261 nM.

Consider `Nc1ncc([C@@H]2CC[C@H](O)[C@H](F)C2)nc1-c1ccc(C(=O)N[C@H](CO)c2cc(F)cc(Br)c2)c(F)c1` [Example 185, 4-(3-amino-6-((1R,3R,4S)-3-fluoro-4-hydroxycyclohexyl)pyrazin-2-yl)-N—((S)-1-(3-bromo-5-fluorophenyl)-2-hydroxyethyl)-2-fluorobenzamide], for which the IC50 turned out to be 0.924 nM.

For the compound `Nc1ncc([C@H]2CC[C@@H](O)[C@@H](F)C2)nc1-c1ccc(C(=O)N[C@H](CO)c2cc(F)cc(Br)c2)c(F)c1` [Example 186, 4-(3-amino-6-((1S,3S,4R)-3-fluoro-4-hydroxycyclohexyl)pyrazin-2-yl)-N—((S)-1-(3-bromo-5-fluorophenyl)-2-hydroxyethyl)-2-fluorobenzamide], 0.653 nM corresponded to half-maximal inhibition (IC50). The IC50 values of the last two compounds are within 1.5-fold of each other.

With `Nc1ncc([C@@H]2CC[C@@H](O)[C@@H](F)C2)nc1-c1ccc(C(=O)N[C@H](CO)c2cc(F)cc(Br)c2)c(F)c1` [Example 187, 4-(3-amino-6-((1R,3S,4R)-3-fluoro-4-hydroxycyclohexyl)pyrazin-2-yl)-N—((S)-1-(3-bromo-5-fluorophenyl)-2-hydroxyethyl)-2-fluorobenzamide], half-maximal inhibition (IC50) required 0.0363 nM.

In turn, `Nc1ncc([C@H]2CC[C@H](O)[C@H](F)C2)nc1-c1ccc(C(=O)N[C@H](CO)c2cc(F)cc(Br)c2)c(F)c1` [Example 188, 4-(3-amino-6-((1S,3R,4S)-3-fluoro-4-hydroxycyclohexyl)pyrazin-2-yl)-N—((S)-1-(3-bromo-5-fluorophenyl)-2-hydroxyethyl)-2-fluorobenzamide] registered an IC50 of 0.0469 nM.

In the case of `Nc1ncc([C@H]2CC[C@H](O)[C@@H](F)C2)nc1-c1ccc(C(=O)N[C@H](CO)c2cc(F)cc(I)c2)c(F)c1` [Example 189, 4-(3-amino-6-((1S,3S,4S)-3-fluoro-4-hydroxycyclohexyl)pyrazin-2-yl)-2-fluoro-N—((S)-1-(3-fluoro-5-iodophenyl)-2-hydroxyethyl)benzamide], the IC50 came out at 0.0139 nM.

In turn, `Nc1ncc([C@@H]2CC[C@@H](O)[C@H](F)C2)nc1-c1ccc(C(=O)N[C@H](CO)c2cc(F)cc(I)c2)c(F)c1` [Example 190, 4-(3-amino-6-((1R,3R,4R)-3-fluoro-4-hydroxycyclohexyl)pyrazin-2-yl)-2-fluoro-N—((S)-1-(3-fluoro-5-iodophenyl)-2-hydroxyethyl)benzamide] returned an IC50 of 0.0176 nM.

In the case of `Nc1ncc([C@H]2CC[C@H](O)CC2)nc1-c1ccc(C(=O)N[C@H]2C[C@@H]2c2ccccc2)c(F)c1` [Example 202, 4-(3-amino-6-((1r,4S)-4-hydroxycyclohexyl)pyrazin-2-yl)-2-fluoro-N-((1S,2R)-2-phenylcyclopropyl)benzamide], the IC50 was 0.152 nM.

In turn, `Nc1ncc([C@H]2CC[C@H](O)CC2)nc1-c1ccc(C(=O)N[C@@H]2C[C@H]2c2ccccc2)c(F)c1` [Example 203, 4-(3-amino-6-((1r,4R)-4-hydroxycyclohexyl)pyrazin-2-yl)-2-fluoro-N-((1R,2S)-2-phenylcyclopropyl)benzamide] returned a 50% inhibitory concentration (IC50) of 7.33 nM.

For the compound `N#Cc1cc(-c2cc(C3CCOCC3)cnc2N)cc(F)c1C(=O)NCc1ccccc1` [Example 204, 4-(2-amino-5-(tetrahydro-2H-pyran-4-yl)pyridin-3-yl)-N-benzyl-2-cyano-6-fluorobenzamide], 54.6 nM corresponded to half-maximal inhibition (IC50). Compared with the last compound, the IC50 is about 7.4-fold higher.

In turn, `Cc1nn(C(F)F)cc1-c1cnc(N)c(-c2ccc(C(=O)N[C@H](CO)c3cc(F)cc(CF)c3)c(F)c2)c1` [Example 206, (S)-4-(2-amino-5-(1-(difluoromethyl)-3-methyl-1H-pyrazol-4-yl)pyridin-3-yl)-2-fluoro-N-(1-(3-fluoro-5-(fluoromethyl)phenyl)-2-hydroxyethyl)benzamide] came in with an IC50 of 0.0104 nM.

On to `NC[C@@H](NC(=O)c1ccc(-c2nc(C3CCCCC3)cnc2N)cc1F)c1cccc(Cl)c1` [Example 228, (S)-N-(2-amino-1-(3-chlorophenyl)ethyl)-4-(3-amino-6-cyclohexylpyrazin-2-yl)-2-fluorobenzamide], for which inhibition was half-maximal at 0.0505 nM (IC50).

As to `Cn1nccc1-c1cnc(N)c(-c2ccc(C(=O)N[C@H](CN)c3cccc(Cl)c3)c(F)c2)c1` [Example 233, (S)-N-(2-amino-1-(3-chlorophenyl)ethyl)-4-(2-amino-5-(1-methyl-1H-pyrazol-5-yl)pyridin-3-yl)-2-fluorobenzamide], the IC50 is 0.0209 nM.

In turn, `Cn1cc(-c2cnc(N)c(-c3ccc(C(=O)N[C@H](CO)c4cc(F)cc(CF)c4)c(F)c3)c2)cn1` [Example 240, (S)-4-(2-amino-5-(1-methyl-1H-pyrazol-4-yl)pyridin-3-yl)-2-fluoro-N-(1-(3-fluoro-5-(fluoromethyl)phenyl)-2-hydroxyethyl) benzamide] gave an IC50 of 0.0199 nM.

In turn, `Cn1cc(-c2cnc(N)c(-c3ccc(C(=O)N[C@H](CO)c4ccc(F)c(Cl)c4)c(F)c3)c2)cn1` [Example 241, (S)-4-(2-amino-5-(1-methyl-1H-pyrazol-4-yl)pyridin-3-yl)-N-(1-(3-chloro-4-fluorophenyl)-2-hydroxyethyl)-2-fluorobenzamide] gave an IC50 of 0.944 nM.

For the compound `Cc1c(-c2cnc(N)c(-c3ccc(C(=O)N[C@H](CO)c4cc(F)cc(CF)c4)c(F)c3)c2)cnn1C` [Example 242, (S)-4-(2-amino-5-(1,5-dimethyl-1H-pyrazol-4-yl)pyridin-3-yl)-2-fluoro-N-(1-(3-fluoro-5-(fluoromethyl)phenyl)-2-hydroxyethyl) benzamide], it took 0.00875 nM to reach half-maximal inhibition (IC50).

Regarding `Cc1nn(C)cc1-c1cnc(N)c(-c2ccc(C(=O)N[C@H](CO)c3cc(F)cc(CF)c3)c(F)c2)c1` [Example 243, (S)-4-(2-amino-5-(1,3-dimethyl-1H-pyrazol-4-yl)pyridin-3-yl)-2-fluoro-N-(1-(3-fluoro-5-(fluoromethyl)phenyl)-2-hydroxyethyl) benzamide], half-maximal inhibition (IC50) required 0.0121 nM.

Compound `Cn1cc(-c2cnc(N)c(-c3ccc(C(=O)N[C@H](CO)C4CCCCC4)c(F)c3)c2)cn1` [Example 244, (S)-4-(2-amino-5-(1-methyl-1H-pyrazol-4-yl)pyridin-3-yl)-N-(1-cyclohexyl-2-hydroxyethyl)-2-fluorobenzamide] had an IC50 of 157 nM. Against the preceding compound, the IC50 is about 13000-fold higher.

`Cn1cc(-c2cnc(N)c(-c3ccc(C(=O)N[C@H](CO)c4cc(F)cc(C(F)F)c4)c(F)c3)c2)cn1` [Example 253, (S)-4-(2-amino-5-(1-methyl-1H-pyrazol-4-yl)pyridin-3-yl)-N-(1-(3-(difluoromethyl)-5-fluorophenyl)-2-hydroxyethyl)-2-fluorobenzamide] came in with an IC50 of 0.106 nM.

In the case of `Cn1nccc1-c1cnc(N)c(-c2ccc(C(=O)N[C@H](CO)c3cccc(CF)c3)c(F)c2)c1` [Example 254, (S)-4-(2-amino-5-(1-methyl-1H-pyrazol-5-yl)pyridin-3-yl)-2-fluoro-N-(1-(3-(fluoromethyl)phenyl)-2-hydroxyethyl) benzamide], the midpoint of inhibition, the IC50, lay at 0.0599 nM.

Compound `Cc1nn(C)cc1-c1cnc(N)c(-c2ccc(C(=O)N[C@H](CO)c3cccc(CF)c3)c(F)c2)c1` [Example 255, (S)-4-(2-amino-5-(1,3-dimethyl-1H-pyrazol-4-yl)pyridin-3-yl)-2-fluoro-N-(1-(3-(fluoromethyl)phenyl)-2-hydroxyethyl) benzamide] registered an IC50 of 0.0287 nM.
